Structures can show the parent of a compound that is named as a salt.
Columns and labels:
[1] = test system: late components of human complement (C3-C9); experiment: Test Code 035 (C3-C9 inhibitor); format: biochemical; conditions: serial dilution assay, twofold dilutions; higher well number indicates higher activity; N = Negative
Excerpt: (§1) An active inhibitor protects C2 from C1 and C4; (ii) Test Code 035 (C3-C9 inhibitor)--This test determines the ability of the late components of human complement (C3-C9) to lyse EAC 142 in the presence of appropriate dilutions of the test compound. An active inhibitor protects EAC 142 from lysis by human C3-C9; (iii) Test Code 036 (C-Shunt inhibitor)--In this test human erythrocytes rendered fragile are lysed in autologous serum via the shunt pathway activated by cobra venom factor in the presence of appropriate dilutions of the test compound. Inhibition of the shunt pathway results in failure of lysis; (iv) Cap 50 Test--Here, appropriate amounts of the test compound are added to a pool of guinea pig serum in vitro, after which the undiluted serum capillary tube assay of U.S. Pat. No. 3,876,376 is run. The concentration of compound inhibiting 50% is reported; and (v) Guinea Pig Intraperitoneal Test (GPIP)--Guinea pigs weighing about 300 g are dosed intraperitoneally (i.p.) with 200 mg/kg of the test compound dissolved in saline and adjusted to pH 7-8. Approximately 0.4 ml blood samples, taken by orbital sinus puncture 30 minutes and one hour after injections, are collected directly into centrifuge tubes; 5 ml blood samples, taken by decapitation 2 hours after injection are collected directly into beakers. The samples are allowed to clot, centrifuged, and the resultant sera are assayed for complement activity using the capillary complement assay. Percent inhibition is calculated by comparison with simultaneous controls. The results of the GPIP appear in Table I together with results of test code 026, 035, 036 and Cap 50.

activated human C1 = activated human C1 (Homo sapiens, UniProt P09871); experiment: Test Code 026 (C1 inhibitor); format: biochemical; conditions: serial dilution assay, twofold dilutions; higher well number indicates higher activity
Excerpt: as §1

[2] = test system: shunt pathway activated by cobra venom factor; experiment: Test Code 036 (C-Shunt inhibitor); format: cell-based, human; conditions: serial dilution assay, twofold dilutions; higher well number indicates higher activity; N = Negative
Excerpt: as §1

O=S(=O)(O)OC[C@H]1O[C@@H](OC[C@H]2O[C@H](O[C@H]3O[C@H](COS(=O)(=O)O)[C@@H](OS(=O)(=O)O)[C@H](OS(=O)(=O)O)[C@H]3OS(=O)(=O)O)[C@H](OS(=O)(=O)O)[C@@H](OS(=O)(=O)O)[C@@H]2OS(=O)(=O)O)[C@H](OS(=O)(=O)O)[C@@H](OS(=O)(=O)O)[C@@H]1O[C@H]1O[C@H](COS(=O)(=O)O)[C@@H](O[C@H]2O[C@H](COS(=O)(=O)O)[C@@H](O[C@H]3O[C@H](COS(=O)(=O)O)[C@@H](O[C@H]4O[C@H](COS(=O)(=O)O)[C@@H](O[C@H]5O[C@H](COS(=O)(=O)O)[C@@H](O[C@H]6O[C@H](COS(=O)(=O)O)[C@@H](OS(=O)(=O)O)[C@H](OS(=O)(=O)O)[C@H]6OS(=O)(=O)O)[C@H](OS(=O)(=O)O)[C@H]5OS(=O)(=O)O)[C@H](OS(=O)(=O)O)[C@H]4OS(=O)(=O)O)[C@H](OS(=O)(=O)O)[C@H]3OS(=O)(=O)O)[C@H](OS(=O)(=O)O)[C@H]2OS(=O)(=O)O)[C@H](OS(=O)(=O)O)[C@H]1OS(=O)(=O)O [drawing 26, glc 1α,4 (glc 1α,4)5 glc 1β,6 glc 1α,1α'glc, nonacosakis (H-sulfate), nonacosasodium salt]
C-Late 035 Wells [1]: 1 Wells
Cl 026 Wells (activated human C1): 10 Wells
C-Shunt Inhibition 036 Wells [2]: 6 Wells

O=S(=O)(O)OC[C@H]1O[C@@H](OC[C@H]2O[C@H](O[C@H]3O[C@H](CO[C@@H]4O[C@H](COS(=O)(=O)O)[C@@H](O[C@H]5O[C@H](COS(=O)(=O)O)[C@@H](OS(=O)(=O)O)[C@H](OS(=O)(=O)O)[C@H]5OS(=O)(=O)O)[C@H](OS(=O)(=O)O)[C@H]4OS(=O)(=O)O)[C@@H](OS(=O)(=O)O)[C@H](OS(=O)(=O)O)[C@H]3OS(=O)(=O)O)[C@H](OS(=O)(=O)O)[C@@H](OS(=O)(=O)O)[C@@H]2OS(=O)(=O)O)[C@H](OS(=O)(=O)O)[C@@H](OS(=O)(=O)O)[C@@H]1O[C@H]1O[C@H](COS(=O)(=O)O)[C@@H](OS(=O)(=O)O)[C@H](OS(=O)(=O)O)[C@H]1OS(=O)(=O)O [drawing 15, Glc 1α,4 glc 1β,6 glc 1α,1α' glc 1β,6 glc 1α,4 glc, eicosakis (H-sulfate), eicosasalt with trimethylamine]
C-Late 035 Wells [1]: N
Cl 026 Wells (activated human C1): 5 Wells
C-Shunt Inhibition 036 Wells [2]: N

O=S(=O)(O)OC[C@H]1O[C@@H](OC[C@H]2O[C@H](O[C@H]3O[C@H](CO[C@@H]4O[C@H](COS(=O)(=O)O)[C@@H](O[C@H]5O[C@H](COS(=O)(=O)O)[C@@H](O[C@H]6O[C@H](COS(=O)(=O)O)[C@@H](O[C@H]7O[C@H](COS(=O)(=O)O)[C@@H](O[C@H]8O[C@H](COS(=O)(=O)O)[C@@H](O[C@H]9O[C@H](COS(=O)(=O)O)[C@@H](O[C@H]%10O[C@H](COS(=O)(=O)O)[C@@H](OS(=O)(=O)O)[C@H](OS(=O)(=O)O)[C@H]%10OS(=O)(=O)O)[C@H](OS(=O)(=O)O)[C@H]9OS(=O)(=O)O)[C@H](OS(=O)(=O)O)[C@H]8OS(=O)(=O)O)[C@H](OS(=O)(=O)O)[C@H]7OS(=O)(=O)O)[C@H](OS(=O)(=O)O)[C@H]6OS(=O)(=O)O)[C@H](OS(=O)(=O)O)[C@H]5OS(=O)(=O)O)[C@H](OS(=O)(=O)O)[C@H]4OS(=O)(=O)O)[C@@H](OS(=O)(=O)O)[C@H](OS(=O)(=O)O)[C@H]3OS(=O)(=O)O)[C@H](OS(=O)(=O)O)[C@@H](OS(=O)(=O)O)[C@@H]2OS(=O)(=O)O)[C@H](OS(=O)(=O)O)[C@@H](OS(=O)(=O)O)[C@@H]1O[C@H]1O[C@H](COS(=O)(=O)O)[C@@H](O[C@H]2O[C@H](COS(=O)(=O)O)[C@@H](O[C@H]3O[C@H](COS(=O)(=O)O)[C@@H](O[C@H]4O[C@H](COS(=O)(=O)O)[C@@H](O[C@H]5O[C@H](COS(=O)(=O)O)[C@@H](O[C@H]6O[C@H](COS(=O)(=O)O)[C@@H](OS(=O)(=O)O)[C@H](OS(=O)(=O)O)[C@H]6OS(=O)(=O)O)[C@H](OS(=O)(=O)O)[C@H]5OS(=O)(=O)O)[C@H](OS(=O)(=O)O)[C@H]4OS(=O)(=O)O)[C@H](OS(=O)(=O)O)[C@H]3OS(=O)(=O)O)[C@H](OS(=O)(=O)O)[C@H]2OS(=O)(=O)O)[C@H](OS(=O)(=O)O)[C@H]1OS(=O)(=O)O [drawing 21, Glc 1α,4 (glc 1α,4)5 glc 1β,6 glc 1α,1α'glc 1β,6 glc (glc 1α,4)5 1α,4 glc, pentacontakis (H-sulfate), pentacontasalt with trimethylamine]
C-Late 035 Wells [1]: N
Cl 026 Wells (activated human C1): 10 Wells
C-Shunt Inhibition 036 Wells [2]: 5 Wells

O=S(=O)(O)OC[C@H]1O[C@@H](OC[C@H]2O[C@H](O[C@H]3O[C@H](CO[C@@H]4O[C@H](COS(=O)(=O)O)[C@H](OS(=O)(=O)O)[C@H](OS(=O)(=O)O)[C@H]4OS(=O)(=O)O)[C@@H](OS(=O)(=O)O)[C@H](OS(=O)(=O)O)[C@H]3OS(=O)(=O)O)[C@H](OS(=O)(=O)O)[C@@H](OS(=O)(=O)O)[C@@H]2OS(=O)(=O)O)[C@H](OS(=O)(=O)O)[C@@H](OS(=O)(=O)O)[C@H]1OS(=O)(=O)O [drawing 11, Gal 1β,6 glc 1α,1α' glc 1β,6 gal, tetradecakis (H-sulfate), tetradecasalt with trimethylamine]
Cl 026 Wells (activated human C1): 9 Wells
C-Shunt Inhibition 036 Wells [2]: 5 Wells

O=S(=O)(O)OC[C@H]1O[C@@H](OC[C@H]2O[C@H](O[C@H]3O[C@H](CO[C@@H]4O[C@H](COS(=O)(=O)O)[C@H](OS(=O)(=O)O)[C@H](OS(=O)(=O)O)[C@H]4OS(=O)(=O)O)[C@@H](OS(=O)(=O)O)[C@H](OS(=O)(=O)O)[C@H]3OS(=O)(=O)O)[C@H](OS(=O)(=O)O)[C@@H](OS(=O)(=O)O)[C@@H]2OS(=O)(=O)O)[C@H](OS(=O)(=O)O)[C@@H](OS(=O)(=O)O)[C@H]1OS(=O)(=O)O [drawing 12, Gal 1β,6 glc 1α,1α' glc 1β,6 gal, tetradecakis (H-sulfate), tetradecasodium salt]
Cl 026 Wells (activated human C1): 9 Wells
C-Shunt Inhibition 036 Wells [2]: 6 Wells

O=S(=O)(O)OC[C@H]1O[C@@H](OC[C@H]2O[C@H](O[C@H]3O[C@H](CO[C@@H]4O[C@H](COS(=O)(=O)O)[C@@H](O[C@H]5O[C@H](COS(=O)(=O)O)[C@@H](O[C@H]6O[C@H](COS(=O)(=O)O)[C@@H](O[C@H]7O[C@H](COS(=O)(=O)O)[C@@H](O[C@H]8O[C@H](COS(=O)(=O)O)[C@@H](O[C@H]9O[C@H](COS(=O)(=O)O)[C@@H](O[C@H]%10O[C@H](COS(=O)(=O)O)[C@@H](OS(=O)(=O)O)[C@H](OS(=O)(=O)O)[C@H]%10OS(=O)(=O)O)[C@H](OS(=O)(=O)O)[C@H]9OS(=O)(=O)O)[C@H](OS(=O)(=O)O)[C@H]8OS(=O)(=O)O)[C@H](OS(=O)(=O)O)[C@H]7OS(=O)(=O)O)[C@H](OS(=O)(=O)O)[C@H]6OS(=O)(=O)O)[C@H](OS(=O)(=O)O)[C@H]5OS(=O)(=O)O)[C@H](OS(=O)(=O)O)[C@H]4OS(=O)(=O)O)[C@@H](OS(=O)(=O)O)[C@H](OS(=O)(=O)O)[C@H]3OS(=O)(=O)O)[C@H](OS(=O)(=O)O)[C@@H](OS(=O)(=O)O)[C@@H]2OS(=O)(=O)O)[C@H](OS(=O)(=O)O)[C@@H](OS(=O)(=O)O)[C@@H]1O[C@H]1O[C@H](COS(=O)(=O)O)[C@@H](O[C@H]2O[C@H](COS(=O)(=O)O)[C@@H](O[C@H]3O[C@H](COS(=O)(=O)O)[C@@H](O[C@H]4O[C@H](COS(=O)(=O)O)[C@@H](O[C@H]5O[C@H](COS(=O)(=O)O)[C@@H](O[C@H]6O[C@H](COS(=O)(=O)O)[C@@H](OS(=O)(=O)O)[C@H](OS(=O)(=O)O)[C@H]6OS(=O)(=O)O)[C@H](OS(=O)(=O)O)[C@H]5OS(=O)(=O)O)[C@H](OS(=O)(=O)O)[C@H]4OS(=O)(=O)O)[C@H](OS(=O)(=O)O)[C@H]3OS(=O)(=O)O)[C@H](OS(=O)(=O)O)[C@H]2OS(=O)(=O)O)[C@H](OS(=O)(=O)O)[C@H]1OS(=O)(=O)O [drawing 23, Glc 1α,4 (glc 1α,4)5 glc 1β,6 glc 1α,1α'glc 1β,6 glc (glc 1α,4)5 1α,4 glc, pentacontakis (H-sulfate), pentacontasodium salt]
C-Late 035 Wells [1]: 2 Wells
Cl 026 Wells (activated human C1): 9 Wells
C-Shunt Inhibition 036 Wells [2]: 6 Wells

O=S(=O)(O)O[C@@H]1[C@@H](OS(=O)(=O)O)[C@@H](O[C@H]2O[C@H](CO[C@@H]3OC[C@@H](OS(=O)(=O)O)[C@H](OS(=O)(=O)O)[C@H]3OS(=O)(=O)O)[C@@H](OS(=O)(=O)O)[C@H](OS(=O)(=O)O)[C@H]2OS(=O)(=O)O)O[C@H](CO[C@@H]2OC[C@@H](OS(=O)(=O)O)[C@H](OS(=O)(=O)O)[C@H]2OS(=O)(=O)O)[C@H]1OS(=O)(=O)O [drawing 13, Xyl 1β,6 glc 1α,1α' glc 1β,6 xyl, dodecakis (H-sulfate), dodecasalt with trimethylamine]
Cl 026 Wells (activated human C1): 10 Wells
C-Shunt Inhibition 036 Wells [2]: 3 Wells

— patent US4359458A, “O-β. -D (and O-α.. -D) Multigalactopyranosyl, xylopyranosyl and glucopyranosyl sulfate salts” (American Cyanamid Company, priority 1981, dated 1982)
